According to patent US11352352B2, “Aminopyrimidine compound, preparation method therefor and use thereof” (BEIJING ADAMADLE BIOTECHNOLOGY LIMITED LIABILITY COMPANY, priority 2017, dated 2022):
pIC50: −log10 of the molar value.

Columns and labels:
Assay in all cases: Cell proliferation inhibition experiment, CellTiter-Glo (CTG) method
Type in all cases: cell-based
[1] = tested on: PC-9; details: Homo sapiens, PC-9, 72 h, PC-9 cells, 3 days
Method: (§1) Cell Proliferation Inhibition Experiment
(§2) Compounds were tested in the selected cell lines, and solvent is set as control, nine concentrations were detected with three parallel wells for each concentration.
(§3) 2. Reagents and Materials • 1) fetal bovine serum FBS (GIBCO, Cat #10099-141) • 2) CellTiter-Glo® Luminescent Cell Viability Assay (Promega, Cat #G7572) • 3) 96-well plate with flat clear bottom, black wall plates (Corning®, Cat #3340)
(§4) The first day: Incubation and plant of cells • 1) Cells in logarithmic growth phase were harvested and counted by cell counter. Cell viability was detected by trypan blue exclusion assay to ensure that the viability of each cell line was above 90%. • 2) Cell concentration was adjusted by diluting complete culture medium, and 90 μL cell suspension was added to a 96-well plate (T0 plate and drug plate to be tested) to make the cell density reach the specified concentration. • 3) Cells in 96-well plate were incubated overnight at condition of 37° C., 5% CO2 and 95% humidity.
(§5) The second day: Reading T0 plate • 1) 10 μL culture medium was added to T0 plate. • 2) CTG reagent was melt, while the cell plate was balanced to room temperature for 30 minutes. • 3) The same volume of CTG solution was added to each well. • 4) The cell plate was vibrated for 2 minutes on an orbital shaker to lyze the cells. • 5) The cell plate was placed at room temperature for 10 minutes to stabilize the cold light signal. • 6) The cold light value was read with EnVision.
(§6) Drug Addition • 1) Drug dilution. The compounds to be tested were dissolved and packaged, then a gradient elution was performed to obtain a solution diluted 10 times. • 2) Drug addition. […] drug solution was added into each well of the 96-well plate, which was inoculated cells, three parallel wells were set for each cell concentration.
(§7) The third day: reading plate at the terminal • 1) CTG reagent was melt, while the cell plate was balanced to room temperature for 30 minutes. • 2) The same volume of CTG solution was added to each well. • 3) The cell plate was vibrated for 2 minutes on an orbital shaker to lyze the cells. • 4) The cell plate was placed at room temperature for 10 minutes to stabilize the cold light signal. • 5) The cold light value was read with EnVision
(§8) Data were analyzed using GraphPad Prism 5.0 software, and non-linear S curve regression was used for fitting the data to give a dose-effect curve, IC50 value was calculated accordingly. Cell Survival Rate (%)=(Lumdrugs−Lumcontrol)/(Lumcell−Lumcontrol)×100%.

[2] = tested on: NCI-H1975; details: for pIC50: Homo sapiens, NCI-H1975, 72 h, NCI-H1975 cells, CTG, 3 days; for A-431/NCI-H1975 Selectivity: ratio of A-431 IC50 to NCI-H1975 IC50
Method: as §1, §2, §3, §4, §5, §6, §7, §8

[3] = tested on: A-431; details: Homo sapiens, A-431, 72 h, A-431 cells, 3 days
Method: as §1, §2, §3, §4, §5
Drug Addition • 1) Drug dilution. The compounds to be tested were dissolved and packaged, then a gradient elution was performed to obtain a solution diluted 10 times. • 2) Drug addition. […] drug solution was added into each well of the 96-well plate, which was inoculated cells, three parallel wells were set for each cell concentration. The highest concentration of the compounds to be tested on A-431 was 30 μM, nine concentrations was set with 3 times dilution; while the highest concentration on NCI-H1975 and PC-9 was 1.111 μM, 9 concentrations was set with 3 times dilution. • 3) Culture. Cells in 96-well plates in which drugs have been added were cultured at condition of 37° C., 5% CO2 and 95% humidity for 3 days, and then CTG assay was performed respectively.
as §7, §8

pIC50 [1]	pIC50 [2]	pIC50 [3]	SMILES	A-431/NCI-H1975 Selectivity [2]
7.49	7.21	5.60	C=CC(=O)Nc1cc(Nc2nccc(-c3ccc4c(cnn4C)c3)n2)c(OC)cc1N1CCC(N2CCN(C(C)=O)CC2)CC1 [compound 253]	40.0
7.33	7.28	5.62	C=CC(=O)Nc1cc(Nc2cc(-c3ccc4c(cnn4C)c3)ncn2)c(OC(F)F)cc1OCCN(C)C(C)C [compound 187]	45.4
7.34	7.25	5.64	C=CC(=O)Nc1cc(Nc2cc(-c3ccc4c(cnn4C)c3)ncn2)c(OC)cc1N1CCN(CC(=O)N(C)C)CC1 [compound 136]	41.1
7.34	7.24	5.71	C=CC(=O)Nc1cc(Nc2cc(-c3ccc4c(cnn4C)c3)ncn2)c(OC)cc1N(C)CCCN(C)C [compound 40]	34.5
7.10	7.17	5.76	C=CC(=O)Nc1cc(Nc2cc(-c3ccc4c(cnn4C)c3)ncn2)c(OC)cc1N(C)CCN1CCCCC1 [compound 37]	25.5
7.27	7.10	5.56	C=CC(=O)Nc1cc(Nc2cc(-c3ccc4c(cnn4C)c3)ncn2)c(OC)cc1N(C)C1CCN(C(C)=O)CC1 [compound 293]	34.3
7.44	7.51	5.79	C=CC(=O)Nc1cc(Nc2nccc(-c3ccc4c(cnn4C)c3)n2)c(OC)cc1C(=O)N(C)CCN(C)C [compound 290]	52.9
7.89	7.49	5.68	C=CC(=O)Nc1cc(Nc2cc(-c3ccc4cnn(C)c4c3)ncn2)c(OC)cc1N1C[C@@H](C)N[C@@H](C)C1 [compound 276]	65.1
8.17	8.09	6.22	C=CC(=O)Nc1cc(Nc2cc(-c3ccc4c(cnn4C)c3)ncn2)c(OC(F)F)cc1N(C)CCNC(C)(C)C [compound 120]	73.0
7.89	7.87	5.91	C=CC(=O)Nc1cc(Nc2cc(-c3ccc4c(cnn4C)c3)ncn2)c(OC)cc1N1CCN(C2CCC(OC)C2)CC1 (stereo not drawn) [compound 216]	90.0
7.65	7.48	6.10	C=CC(=O)Nc1cc(Nc2cc(-c3ccc4c(cnn4C)c3)ncn2)c(OC(F)F)cc1N1C[C@@H](C)N(C)[C@@H](C)C1 [compound 97]	24.1
7.81	7.57	5.77	C=CC(=O)Nc1cc(Nc2cc(-c3ccc4c(cnn4C)c3)ncn2)c(OC)cc1N1CCN(C(C)(C)CO)CC1 [compound 268]	62.7
7.49	7.61	6.01	C=CC(=O)Nc1cc(Nc2cc(-c3ccc4c(cnn4C)c3)ncn2)c(OC)cc1N(C)C1CCN(C(C)C)CC1 [compound 142]	39.5
7.36	7.25	5.64	C=CC(=O)Nc1cc(Nc2cc(-c3ccc4c(c3)ncn4C)ncn2)c(OC)cc1N(C)CCN1CCN(C(C)=O)CC1 [compound 130]	40.9
7.57	7.80	5.96	C=CC(=O)Nc1cc(Nc2cc(-c3ccc4c(cnn4C)c3)ncn2)c(OC)cc1N(C)C1CCN(CCOC)CC1 [compound 224]	69.3
7.66	7.28	5.70	C=CC(=O)Nc1cc(Nc2cc(-c3ccc4cnn(C)c4c3)ncn2)c(OC(F)F)cc1N1C[C@@H](C)N[C@@H](C)C1 [compound 277]	37.9
7.81	7.58	5.76	C=CC(=O)Nc1cc(Nc2cc(-c3ccc4c(cnn4C)c3)ncn2)c(OCC)cc1N1C[C@@H](C)N(C)[C@@H](C)C1 [compound 90]	66.2
7.15	7.21	5.62	C=CC(=O)Nc1cc(Nc2nccc(-c3ccc4c(cnn4C)c3)n2)c(OC(F)F)cc1N(C)CCN1CCN(C)CC1 [compound 245]	38.6
7.53	7.34	5.72	C=CC(=O)Nc1cc(Nc2cc(-c3ccc4c(cnn4C)c3)ncn2)c(OC)cc1N(C)C1CCC(N2CCN(C)CC2)CC1 (stereo not drawn) [compound 72]	42.1
7.61	7.74	6.01	C=CC(=O)Nc1cc(Nc2cc(-c3ccc4c(cnn4C)c3)ncn2)c(OC(F)F)cc1N1CCC(N2CCN(C(C)C)CC2)CC1 [compound 147]	53.2
7.98	7.87	5.74	C=CC(=O)Nc1cc(Nc2cc(-c3ccc4c(cnn4C)c3)ncn2)c(OC)cc1N(C)C1CCCN(C)C1 (stereo not drawn) [compound 69]	136.8
8.07	8.74	6.11	C=CC(=O)Nc1c(N(C)CCN(C)C)cc(OC)c(Nc2cc(-c3ccc4c(cnn4C)c3)ncn2)c1F [compound 13]	
7.86	8.25	6.01	C=CC(=O)Nc1cc(Nc2cc(-c3ccc4c(cnn4C)c3)ncn2)c(OC(F)F)cc1N(C)CCNC(C)C [compound 272]	176.3
7.97	7.95	6.89	C=CC(=O)Nc1cc(Nc2cc(-c3ccc4nn(C)cc4c3)ncn2)c(OC)cc1N(C)CCN(C)C [compound 7]	11.6
7.12	7.04	5.75	C=CC(=O)Nc1cc(Nc2cc(-c3ccc4c(cnn4C(C)C)c3)ncn2)c(OC)cc1N1CCC(C2CCN(C)CC2)CC1 [compound 86]	19.4
7.63	7.70	5.98	C=CC(=O)Nc1cc(Nc2cc(-c3ccc4c(cnn4CC)c3)ncn2)c(OC)cc1N(C)CCN1CCN(C)CC1 [compound 118]	53.2
7.17	7.13	5.96	C=CC(=O)Nc1cc(Nc2cc(-c3ccc4cnn(C)c4c3)ncn2)c(OC)cc1N(C)CCCN(C)C [compound 79]	15
	7.01	5.70	C=CC(=O)Nc1cc(Nc2cc(-c3ccc4c(cnn4C)c3)ncn2)c(OC)cc1N(C)C1CCOCC1 [compound 106]	20.8
	7.88	5.85	C=CC(=O)Nc1cc(Nc2cc(-c3ccc4c(cnn4C)c3)ncn2)c(OC)cc1N(C)C1CCN(C)C1 (stereo not drawn) [compound 57]	

SMILES	pIC50 [1]	pIC50 [2]	pIC50 [3]	A-431/NCI-H1975 Selectivity [2]
C=CC(=O)Nc1cc(Nc2cc(-c3ccc4c(cnn4C)c3)ncn2)c(OC)cc1N(C)C1CCN(CC)CC1 [compound 226]	7.26	7.17	5.62	35.0
C=CC(=O)Nc1cc(Nc2cc(-c3ccc4cnn(C)c4c3)ncn2)c(OC)cc1N(C)C1CCN(CC)CC1 [compound 227]	7.04	7.10	5.61	30.6
